Test results published in the kinase profiling compilation of Christmann-Franck et al. (2016).
Values joined by “and” are separate entries in the source; they are usually repeats but may differ in a detail not shown here. Equal entries are not always repeated.

Key:
Assay in all cases: KINOMEscan competition binding
Settings in all cases: compound 10.0 µM
FLT4 (human) = FLT4 (human) (UniProt P35916)
STK11 (human) = STK11 (human) (UniProt Q15831)
MAP4K5 (human) = MAP4K5 (human) (UniProt Q9Y4K4)
MAPKAPK5 (human) = MAPKAPK5 (human) (UniProt Q8IW41)
MAPKAPK5 (human), sequence (Q8IW41 whole entry, looked up): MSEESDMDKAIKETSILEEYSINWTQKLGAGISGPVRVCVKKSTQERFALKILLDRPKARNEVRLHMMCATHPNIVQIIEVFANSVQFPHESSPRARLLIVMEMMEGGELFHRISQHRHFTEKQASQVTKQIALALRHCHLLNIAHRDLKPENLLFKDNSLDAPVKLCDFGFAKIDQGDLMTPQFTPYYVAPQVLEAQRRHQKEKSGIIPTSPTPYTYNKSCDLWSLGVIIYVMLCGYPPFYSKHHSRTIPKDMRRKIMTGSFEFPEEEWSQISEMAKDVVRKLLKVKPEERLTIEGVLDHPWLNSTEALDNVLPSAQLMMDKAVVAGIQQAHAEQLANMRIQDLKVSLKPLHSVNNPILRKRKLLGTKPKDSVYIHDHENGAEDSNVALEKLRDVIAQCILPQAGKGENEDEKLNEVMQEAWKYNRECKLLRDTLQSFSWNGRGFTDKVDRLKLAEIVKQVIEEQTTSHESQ

MTOR (human) = MTOR (human) (UniProt P42345)
CLK2 (human) = CLK2 (human) (UniProt P49760)
HIPK1 (human) = HIPK1 (human) (UniProt Q86Z02)
MUSK (human) = MUSK (human) (UniProt O15146)
CLK4 (human) = CLK4 (human) (UniProt Q9HAZ1)
BRSK2 (human) = BRSK2 (human) (UniProt Q8IWQ3)
BRSK2 (human), sequence (Q8IWQ3 whole entry, looked up): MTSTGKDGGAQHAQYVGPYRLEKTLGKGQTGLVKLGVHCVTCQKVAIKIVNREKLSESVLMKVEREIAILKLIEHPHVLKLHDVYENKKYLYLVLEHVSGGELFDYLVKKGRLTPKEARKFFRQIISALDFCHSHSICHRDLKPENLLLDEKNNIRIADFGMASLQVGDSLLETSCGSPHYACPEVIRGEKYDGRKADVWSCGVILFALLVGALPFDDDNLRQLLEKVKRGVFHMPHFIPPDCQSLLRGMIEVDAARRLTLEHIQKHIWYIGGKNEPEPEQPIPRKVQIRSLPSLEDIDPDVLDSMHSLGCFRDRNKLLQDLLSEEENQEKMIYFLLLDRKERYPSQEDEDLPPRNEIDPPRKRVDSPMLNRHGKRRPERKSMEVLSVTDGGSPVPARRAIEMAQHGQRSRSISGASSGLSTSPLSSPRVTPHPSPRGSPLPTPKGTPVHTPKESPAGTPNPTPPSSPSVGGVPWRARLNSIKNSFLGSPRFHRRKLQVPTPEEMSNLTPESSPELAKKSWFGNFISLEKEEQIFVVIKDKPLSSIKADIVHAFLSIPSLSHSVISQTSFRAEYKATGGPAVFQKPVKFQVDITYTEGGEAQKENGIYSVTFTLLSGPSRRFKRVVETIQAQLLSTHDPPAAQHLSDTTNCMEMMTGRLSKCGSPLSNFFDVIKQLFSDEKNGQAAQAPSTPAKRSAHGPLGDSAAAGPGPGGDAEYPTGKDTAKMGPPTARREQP

RPS6KA3 KD1 (human) = RPS6KA3 KD1 (human) (UniProt P51812)
RPS6KA3 KD1 (human), sequence (P51812 whole entry, looked up): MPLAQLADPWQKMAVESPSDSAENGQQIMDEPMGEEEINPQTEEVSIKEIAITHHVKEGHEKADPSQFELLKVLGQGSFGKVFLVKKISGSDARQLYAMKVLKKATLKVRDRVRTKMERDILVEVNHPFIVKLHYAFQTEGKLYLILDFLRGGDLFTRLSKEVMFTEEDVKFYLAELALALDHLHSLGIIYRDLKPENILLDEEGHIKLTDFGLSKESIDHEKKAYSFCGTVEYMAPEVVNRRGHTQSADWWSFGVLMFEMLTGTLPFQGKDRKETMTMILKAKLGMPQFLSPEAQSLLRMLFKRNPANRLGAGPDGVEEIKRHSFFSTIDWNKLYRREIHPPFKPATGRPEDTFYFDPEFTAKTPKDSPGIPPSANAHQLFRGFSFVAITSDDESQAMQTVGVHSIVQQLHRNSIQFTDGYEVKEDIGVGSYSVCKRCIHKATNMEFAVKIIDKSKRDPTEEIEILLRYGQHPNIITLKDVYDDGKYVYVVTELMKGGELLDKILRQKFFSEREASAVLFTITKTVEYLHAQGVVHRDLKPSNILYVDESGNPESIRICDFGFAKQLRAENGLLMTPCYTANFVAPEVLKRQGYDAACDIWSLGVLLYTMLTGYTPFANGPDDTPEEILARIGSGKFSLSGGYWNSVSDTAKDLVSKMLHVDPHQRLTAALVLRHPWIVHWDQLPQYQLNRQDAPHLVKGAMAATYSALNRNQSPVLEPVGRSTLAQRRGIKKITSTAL

RIOK3 (human) = RIOK3 (human) (UniProt O14730)
ULK2 (human) = ULK2 (human) (UniProt Q8IYT8)
MAP3K7 (human) = MAP3K7 (human) (UniProt O43318)
MAP4K4 (human) = MAP4K4 (human) (UniProt O95819)
FLT3 (human) = FLT3 (human) (UniProt P36888)
CAMKK2 (human) = CAMKK2 (human) (UniProt Q96RR4)
HCK (human) = HCK (human) (UniProt P08631)
MYLK (human) = MYLK (human) (UniProt Q15746)
TIE1 (human) = TIE1 (human) (UniProt P35590)
TIE1 (human), sequence (P35590 whole entry, looked up): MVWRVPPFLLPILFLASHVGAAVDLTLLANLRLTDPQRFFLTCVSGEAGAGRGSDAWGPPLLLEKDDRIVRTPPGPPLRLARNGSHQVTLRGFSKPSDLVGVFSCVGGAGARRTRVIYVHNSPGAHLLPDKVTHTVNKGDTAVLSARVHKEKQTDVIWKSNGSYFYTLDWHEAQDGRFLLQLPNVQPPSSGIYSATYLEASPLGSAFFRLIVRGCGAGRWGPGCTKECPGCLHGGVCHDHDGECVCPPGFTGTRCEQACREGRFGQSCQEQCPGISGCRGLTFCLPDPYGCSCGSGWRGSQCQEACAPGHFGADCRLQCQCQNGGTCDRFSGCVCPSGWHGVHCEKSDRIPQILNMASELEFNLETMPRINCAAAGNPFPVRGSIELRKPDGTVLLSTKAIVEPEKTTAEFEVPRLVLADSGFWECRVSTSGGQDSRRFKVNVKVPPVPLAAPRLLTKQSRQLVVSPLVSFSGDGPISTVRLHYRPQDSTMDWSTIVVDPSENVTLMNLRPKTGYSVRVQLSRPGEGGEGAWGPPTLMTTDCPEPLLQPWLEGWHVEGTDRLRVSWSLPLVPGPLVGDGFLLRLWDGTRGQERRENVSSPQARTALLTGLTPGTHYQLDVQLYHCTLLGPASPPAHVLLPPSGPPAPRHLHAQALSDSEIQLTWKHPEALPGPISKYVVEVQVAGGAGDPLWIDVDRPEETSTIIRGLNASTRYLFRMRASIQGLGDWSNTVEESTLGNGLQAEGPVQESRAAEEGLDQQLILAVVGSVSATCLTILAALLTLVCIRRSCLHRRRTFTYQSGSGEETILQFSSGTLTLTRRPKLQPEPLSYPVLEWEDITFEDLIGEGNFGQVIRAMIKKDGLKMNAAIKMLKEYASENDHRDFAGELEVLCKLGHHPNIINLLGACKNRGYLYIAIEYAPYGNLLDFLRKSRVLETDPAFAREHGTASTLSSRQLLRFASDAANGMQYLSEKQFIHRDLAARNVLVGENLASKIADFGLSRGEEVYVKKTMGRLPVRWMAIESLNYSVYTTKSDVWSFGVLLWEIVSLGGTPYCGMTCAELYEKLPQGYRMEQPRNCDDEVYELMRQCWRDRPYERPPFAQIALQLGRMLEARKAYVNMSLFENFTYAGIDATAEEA

NEK3 (human) = NEK3 (human) (UniProt P51956)
PLK1 (human) = PLK1 (human) (UniProt P53350)
CSNK1E (human) = CSNK1E (human) (UniProt P49674)
[1] = target: JAK1 JH1 catalytic (human) (UniProt P23458)
RAF1 (human) = RAF1 (human) (UniProt P04049)
RPS6KA1 KD2 (human) = RPS6KA1 KD2 (human) (UniProt Q15418)
CAMK2B (human) = CAMK2B (human) (UniProt Q13554)
PLK3 (human) = PLK3 (human) (UniProt Q9H4B4)
MAPK7 (human) = MAPK7 (human) (UniProt Q13164)
RPS6KA4 KD1 (human) = RPS6KA4 KD1 (human) (UniProt O75676)
MAP4K2 (human) = MAP4K2 (human) (UniProt Q12851)
CSNK1G1 (human) = CSNK1G1 (human) (UniProt Q9HCP0)
CSNK1G1 (human), sequence (Q9HCP0 whole entry, looked up): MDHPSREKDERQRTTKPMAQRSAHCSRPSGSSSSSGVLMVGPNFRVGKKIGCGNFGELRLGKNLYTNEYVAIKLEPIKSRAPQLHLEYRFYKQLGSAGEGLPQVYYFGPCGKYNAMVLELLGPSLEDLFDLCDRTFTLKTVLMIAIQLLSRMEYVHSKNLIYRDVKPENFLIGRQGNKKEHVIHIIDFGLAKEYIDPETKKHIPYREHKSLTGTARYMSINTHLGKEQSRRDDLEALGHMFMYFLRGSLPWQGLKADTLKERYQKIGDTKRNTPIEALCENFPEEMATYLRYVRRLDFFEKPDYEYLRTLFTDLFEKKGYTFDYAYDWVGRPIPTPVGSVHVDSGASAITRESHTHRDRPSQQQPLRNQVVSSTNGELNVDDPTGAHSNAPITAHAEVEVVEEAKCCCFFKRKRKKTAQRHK

MINK1 (human) = MINK1 (human) (UniProt Q8N4C8)
MAP3K4 (human) = MAP3K4 (human) (UniProt Q9Y6R4)
EGFR (human) = EGFR (human) (UniProt P00533)
CDC42BPG (human) = CDC42BPG (human) (UniProt Q6DT37)
[2] = target: JAK3 JH1 catalytic (human) (UniProt P52333)
CDC42BPB (human) = CDC42BPB (human) (UniProt Q9Y5S2)
EPHA8 (human) = EPHA8 (human) (UniProt P29322)
CSF1R (human) = CSF1R (human) (UniProt P07333)

MAP4K5 (human), sequence (Q9Y4K4 whole entry, looked up): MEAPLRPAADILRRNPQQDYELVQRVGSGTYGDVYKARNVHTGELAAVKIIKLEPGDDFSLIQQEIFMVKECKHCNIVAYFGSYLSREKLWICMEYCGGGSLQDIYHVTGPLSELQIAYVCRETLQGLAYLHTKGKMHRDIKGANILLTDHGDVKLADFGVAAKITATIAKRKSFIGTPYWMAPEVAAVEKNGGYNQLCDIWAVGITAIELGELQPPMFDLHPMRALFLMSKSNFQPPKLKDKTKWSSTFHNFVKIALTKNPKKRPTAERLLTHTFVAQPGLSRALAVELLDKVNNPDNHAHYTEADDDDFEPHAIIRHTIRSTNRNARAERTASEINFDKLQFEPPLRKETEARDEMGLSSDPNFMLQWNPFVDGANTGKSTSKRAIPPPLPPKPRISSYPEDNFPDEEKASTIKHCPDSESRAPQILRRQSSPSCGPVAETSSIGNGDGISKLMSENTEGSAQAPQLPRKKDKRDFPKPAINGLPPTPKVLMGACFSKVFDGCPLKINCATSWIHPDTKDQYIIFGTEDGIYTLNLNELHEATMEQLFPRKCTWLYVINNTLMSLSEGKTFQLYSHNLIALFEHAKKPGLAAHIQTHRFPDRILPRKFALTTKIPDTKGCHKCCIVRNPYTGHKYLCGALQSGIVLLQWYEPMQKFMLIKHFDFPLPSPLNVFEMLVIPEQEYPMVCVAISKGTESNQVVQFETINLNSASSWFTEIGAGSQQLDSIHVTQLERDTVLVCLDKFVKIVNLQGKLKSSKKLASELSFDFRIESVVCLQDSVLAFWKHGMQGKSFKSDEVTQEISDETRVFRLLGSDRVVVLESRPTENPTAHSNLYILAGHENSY
STK11 (human), sequence (Q15831 whole entry, looked up): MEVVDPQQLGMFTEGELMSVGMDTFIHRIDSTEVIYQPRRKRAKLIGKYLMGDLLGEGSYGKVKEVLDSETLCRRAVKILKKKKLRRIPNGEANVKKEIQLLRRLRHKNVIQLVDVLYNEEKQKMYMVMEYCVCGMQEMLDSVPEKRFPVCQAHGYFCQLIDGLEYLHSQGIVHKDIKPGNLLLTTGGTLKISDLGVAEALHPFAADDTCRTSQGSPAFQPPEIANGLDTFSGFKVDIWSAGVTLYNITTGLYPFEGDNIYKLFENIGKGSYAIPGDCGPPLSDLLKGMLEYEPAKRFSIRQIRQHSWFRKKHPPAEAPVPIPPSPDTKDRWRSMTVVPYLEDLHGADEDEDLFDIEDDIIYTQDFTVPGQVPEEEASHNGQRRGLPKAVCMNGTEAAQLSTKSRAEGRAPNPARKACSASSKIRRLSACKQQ

| Structure (SMILES) | kinase still bound, per cent of control (FLT4 (human)) [%] | kinase still bound, per cent of control (STK11 (human)) [%] | kinase still bound, per cent of control (MAP4K5 (human)) [%] | kinase still bound, per cent of control (MAPKAPK5 (human)) [%] | kinase still bound, per cent of control (MTOR (human)) [%] | kinase still bound, per cent of control (CLK2 (human)) [%] | kinase still bound, per cent of control (HIPK1 (human)) [%] | kinase still bound, per cent of control (MUSK (human)) [%] | kinase still bound, per cent of control (CLK4 (human)) [%] | kinase still bound, per cent of control (BRSK2 (human)) [%] | kinase still bound, per cent of control (RPS6KA3 KD1 (human)) [%] | kinase still bound, per cent of control (RIOK3 (human)) [%] | kinase still bound, per cent of control (ULK2 (human)) [%] | kinase still bound, per cent of control (MAP3K7 (human)) [%] | kinase still bound, per cent of control (MAP4K4 (human)) | kinase still bound, per cent of control (CAMKK2 (human)) [%] | kinase still bound, per cent of control (HCK (human)) [%] | kinase still bound, per cent of control (MYLK (human)) [%] | kinase still bound, per cent of control (TIE1 (human)) [%] | kinase still bound, per cent of control (NEK3 (human)) [%] | further results |
| --- | --- | --- | --- | --- | --- | --- | --- | --- | --- | --- | --- | --- | --- | --- | --- | --- | --- | --- | --- | --- | --- |
| CCCS(=O)(=O)Nc1ccc(F)c(C(=O)c2c[nH]c3ncc(Cl)cc23)c1F | 61 | 79 | 22 | 100 | 58 | 10 | 36 | 71 | 51 | 86 | 56 | 100 | 60 | 51 | 64% | 79 | 19 | 79 | 61 | 69 | kinase still bound, per cent of control (FLT3 (human)): 14%; kinase still bound, per cent of control (PLK1 (human)): 100%; kinase still bound, per cent of control (CSNK1E (human)): 60%; kinase still bound, per cent of control [1]: 77%; kinase still bound, per cent of control (RAF1 (human)): 3.4%; kinase still bound, per cent of control (RPS6KA1 KD2 (human)): 75%; kinase still bound, per cent of control (CAMK2B (human)): 63%; kinase still bound, per cent of control (PLK3 (human)): 96%; kinase still bound, per cent of control (MAPK7 (human)): 65%; kinase still bound, per cent of control (RPS6KA4 KD1 (human)): 85%; kinase still bound, per cent of control (MAP4K2 (human)): 74%; kinase still bound, per cent of control (CSNK1G1 (human)): 66%; kinase still bound, per cent of control (MINK1 (human)): 28%; kinase still bound, per cent of control (MAP3K4 (human)): 92%; kinase still bound, per cent of control (EGFR (human)): 76%; kinase still bound, per cent of control (CDC42BPG (human)): 74%; kinase still bound, per cent of control [2]: 24%; kinase still bound, per cent of control (CDC42BPB (human)): 100%; kinase still bound, per cent of control (EPHA8 (human)): 95% |
| CNC(=O)Nc1ccc(-c2nc(N3CC4CCC(C3)O4)c3cnn(C4CCC5(CC4)OCCO5)c3n2)cc1 | 88 | 80 | 83 | 100 | 5.7 | 98 | 100 | 92 | 88 | 100 | 100 | 100 | 90 | 98 | 85% | 100 | 100 | 100 | 98 | 100 | kinase still bound, per cent of control (FLT3 (human)): 75% and 77%; kinase still bound, per cent of control (CSF1R (human)): 100%; kinase still bound, per cent of control (PLK1 (human)): 77%; kinase still bound, per cent of control (CSNK1E (human)): 39%; kinase still bound, per cent of control [1]: 82%; kinase still bound, per cent of control (RAF1 (human)): 100%; kinase still bound, per cent of control (RPS6KA1 KD2 (human)): 91%; kinase still bound, per cent of control (CAMK2B (human)): 100%; kinase still bound, per cent of control (PLK3 (human)): 100%; kinase still bound, per cent of control (MAPK7 (human)): 100%; kinase still bound, per cent of control (RPS6KA4 KD1 (human)): 90%; kinase still bound, per cent of control (MAP4K2 (human)): 100%; kinase still bound, per cent of control (CSNK1G1 (human)): 54%; kinase still bound, per cent of control (MINK1 (human)): 100%; kinase still bound, per cent of control (MAP3K4 (human)): 86%; kinase still bound, per cent of control (EGFR (human)): 62%; kinase still bound, per cent of control (CDC42BPG (human)): 84%; kinase still bound, per cent of control [2]: 90%; kinase still bound, per cent of control (CDC42BPB (human)): 100%; kinase still bound, per cent of control (EPHA8 (human)): 81% |
| O=c1[nH]c2ccccc2n1C1CCN(Cc2ccc(-c3nc4cc5[nH]cnc5cc4nc3-c3ccccc3)cc2)CC1 | 100 | 94 | 64 | 59 | 100 | 90 | 69 | 100 | 95 | 88 | 67 | 64 | 88 | 85 | 80% and 100% | 97 | 90 | 57 | 100 | 84 | kinase still bound, per cent of control (CSF1R (human)): 99% and 76%; kinase still bound, per cent of control (PLK1 (human)): 93%; kinase still bound, per cent of control (CSNK1E (human)): 15%; kinase still bound, per cent of control [1]: 100%; kinase still bound, per cent of control (RAF1 (human)): 99%; kinase still bound, per cent of control (RPS6KA1 KD2 (human)): 100%; kinase still bound, per cent of control (CAMK2B (human)): 86%; kinase still bound, per cent of control (PLK3 (human)): 94%; kinase still bound, per cent of control (MAPK7 (human)): 100%; kinase still bound, per cent of control (RPS6KA4 KD1 (human)): 100%; kinase still bound, per cent of control (MAP4K2 (human)): 71%; kinase still bound, per cent of control (CSNK1G1 (human)): 100%; kinase still bound, per cent of control (MINK1 (human)): 88%; kinase still bound, per cent of control (MAP3K4 (human)): 78%; kinase still bound, per cent of control (EGFR (human)): 65%; kinase still bound, per cent of control (CDC42BPG (human)): 92%; kinase still bound, per cent of control [2]: 95%; kinase still bound, per cent of control (CDC42BPB (human)): 83%; kinase still bound, per cent of control (EPHA8 (human)): 95% |
